According to US12605362B2, “Eletriptan hydrobromide for treatment of spinal cord injury and improvement of locomotor function” (TECHNOPHAGE, INVESTIGAÇÃO E DESENVOLVIMENTO EM …, priority 2020, dated 2026):
Counter-ions that a name gives are not always drawn.

Assays:
[1] = tested on: mice with T9 contusion type of injury; test: Basso Mouse Scale (BMS) open-field locomotion after T9 contusion spinal cord injury; type: in vivo
Protocol: Adult female C57BL/6J mice (8-10 weeks-old; Charles River) were used in this study. The mice were housed three to four per cage and were maintained on a 12-hour light/dark cycle with food and water ad libitum for the duration of the study.
A moderate-severe contusion-type of injury was performed on adult C57BL/6 female mice (10-12 weeks) with an Infinite Horizon Impactor (PSI)^30. All surgeries were performed under aseptic conditions. Briefly, under deep anesthesia with Ketamine and Xylazine (120 mg/kg and 16 mg/kg respectively, i.p.) mice received a dorsal laminectomy at the level of 9th thoracic vertebra (T9). After securing the lateral processes of the 8th thoracic vertebra (T8) and 10th thoracic vertebra (T10) with a stainless-steel impactor tip, a controlled force-defined impact at 75 kdyne was delivered to the exposed spinal cord^28,30. Then, muscle and skin were closed with 4.0 polyglycolic acid (PGA) absorbable sutures (Safil, G1048213). In this study, mice were excluded when the actual displacement value was outside the interval 500-700 μm or if the actual force after impact was >2SD 75 Kdyne. Immediately after injury, mice were injected subcutaneously with 0.5 ml of sterile saline and then daily for 5 days. During this experiment, mice underwent gentle bladder expression twice daily until they were voiding on their own. Weight was monitored daily until 15 days-post-injury (dpi) and then weekly for the duration of the study and a high caloric pellet (Supreme Mini-Treats™ S05478 and S05472) was provided as a dietary supplement since a 10% weight loss was typically observed in this SCI model upon injury.
The Eletriptan Hbr (Sigma-Aldrich, PZ0011) dosage used were equivalent to the human market dose^31 and all treatment dosages were aliquoted using a coded system to maintain double-blinded measures. This code was only unveiled at the end of all behavioural tests. Mice were randomly distributed to each experimental group (SCI+Vehicle and SCI+Eletriptan Hbr). Vehicle and Eletriptan Hbr were administered via intraperitoneal injection (i.p.), beginning 1 hour after injury (hpi) and then daily until 15 dpi.
Open-field locomotion was assessed with the BMS rating system^30,32. The open-field used was a round platform with 85 cm in diameter and 30.5 cm high, located in a quiet testing room with normal lighting. The mice were habituated to the testing platform for 5 minutes daily for 2 weeks before surgery. The BMS testing (BMS scoring and subscoring) was performed as previously described^28,30. Briefly, mice were tested before surgery, to obtain baseline pre-operation locomotion values, where it is expected a maximum S score value. To determine the functional recovery after treatment the BMS score of each mouse was evaluated at 1, 3, 7, 14 dpi and then weekly until the end of the experiments. The evaluation of BMS score and subscore was always performed by two raters who were blind to the treatment groups and scored hindlimb locomotion for 4 minutes per mouse. If the scores differed between raters, the final score taken was the average of both scores.
To validate the therapeutic effect of Eletriptan Hbr for SCI indication in a non-regenerative model, it was decided to test its efficacy in a SCI rodent model. Therefore, a contusion type of injury was performed in C57BL/6 female mice, using an Infinite Horizon (IH) Impactor and the Basso Mouse Scale (BMS) test^32 was used to evaluate the locomotor performance of the animals after injury. First, mice were habituated to the open-field platform and after 15 days they were injured with a moderate-severe T9 contusion (75 kdyne) (FIG. 2A). Immediately after injury and upon biomechanical exclusion criteria, mice were randomly distributed to each experimental group (SCI+Vehicle and SCI+Eletriptan Hbr). Treatment dosages (Vehicle or Eletriptan Hbr) were administered via intraperitoneal (i.p.) injection, beginning 1 hour-post-injury (1hpi), and then daily until 15 dpi (FIG. 2A). […]

[2] = tested on: mice with T9 contusion type of injury; test: PDGFRβ / CD31 (PECAM-1) double immunohistochemistry, vasculature association; type: in vivo; conditions: sections 1000 μm from epicentre, 42 dpi, vs Vehicle
Protocol: A moderate-severe contusion-type of injury was performed on adult C57BL/6 female mice (10-12 weeks) with an Infinite Horizon Impactor (PSI)^30. All surgeries were performed under aseptic conditions. Briefly, under deep anesthesia with Ketamine and Xylazine (120 mg/kg and 16 mg/kg respectively, i.p.) mice received a dorsal laminectomy at the level of 9th thoracic vertebra (T9). After securing the lateral processes of the 8th thoracic vertebra (T8) and 10th thoracic vertebra (T10) with a stainless-steel impactor tip, a controlled force-defined impact at 75 kdyne was delivered to the exposed spinal cord^28,30. […] Weight was monitored daily until 15 days-post-injury (dpi) and then weekly for the duration of the study and a high caloric pellet (Supreme Mini-Treats™ S05478 and S05472) was provided as a dietary supplement since a 10% weight loss was typically observed in this SCI model upon injury. […]
For immunohistochemistry in sections, OCT was removed from the cryosections using PBS (30 minutes). […] For activated microglia quantification, sections were counterstained with DAPI. […]
To infer if increased levels of PDGFRβ^+ detected on the extremities of the lesion extents were associated with blood vessels we decided to performed a double immunohistochemistry using a pericyte marker PDGFRβ and an endothelial cell marker CD31 (PECAM-1) (FIG. 7). […]

Compound: CN1CCC[C@@H]1Cc1c[nH]c2ccc(CCS(=O)(=O)c3ccccc3)cc12 [Eletriptan Hbr, Eletriptan Hydrobromide]
- animals that acquired a mild trunk stability ([1]; 42 dpi): 46%
- mice with frequent plantar stepping with parallel placement of both hindlimb paws at initial contact ([1]; 42 dpi): 85%
- mice with parallel placement of at least one of the hindlimb paws at lift off ([1]; 42 dpi): 23%
- events that block the walking movement such as spasms and but downs ([1]; 42 dpi, observed during BMS testing, vs Vehicle): less events
- mice that achieved a BMS score of 5 (frequent or consistent plantar stepping) ([1]; 42 dpi, of thirteen treated mice): twelve
- mice that achieved a BMS score of 6 (frequent plantar stepping with some fore-hindlimb coordination) ([1]; 42 dpi, thirteen treated mice): one out of thirteen
- average BMS subscores compared to Vehicle-treated mice ([1]; from 7 to 42 dpi): consistently higher
- average BMS subscores compared to Vehicle-treated mice ([1]; from 35 dpi to 42 dpi): significantly higher
- time at which average BMS scores reached a plateau ([1]; i.p. from 1 hpi, daily until 15 dpi): 28-35 dpi
- BMS scores over time compared to Vehicle-treated mice ([1]; i.p. from 1 hpi, daily until 15 dpi, 1 to 42 dpi): consistently but not significantly higher
- increased expression of PDGFRβ associated with CD31+ endothelial cells [2]: reduced
